Test results from US4407818A, “Anti viral, anti bacterial and/or anti fungal composition containing metal oxyalkylate” (Bio-Systems Research, Inc., priority 1981, dated 1983).
“And” between values parts separate entries of the source, which are not always exact repeats. Equal values may be shown once. “Also recorded” adds a separate entry of the source.

What was measured:
Trichophyton rubrum = experiment: Inhibition of molds, size of cleared area (Example 4); assay type: cell-based; settings: 0.1 ml of a 1% solution containing 0.1% Tween 80
Method: (§1) Bread mold is innoculated on a nutrient plate.
(§2) In a test similar to that of Example 2, zinc oxyacetate is tested for inhibition of four bread molds. The amount of zinc oxyacetate is 0.1 ml of a 1% solution containing 0.1% Tween 80. The amount of mold is 0.1 ml.

Microsporum canis = experiment: as above; assay type: cell-based; settings: 0.1 ml of a 1% solution containing 0.1% Tween 80
Method: as §1, §2

[1] = test system: Trichophyton mentagrophytes; experiment: as above; assay type: cell-based; settings: 0.1 ml of a 1% solution containing 0.1% Tween 80
Method: as §1, §2

Candida albicans = experiment: as above; assay type: cell-based; settings: 0.1 ml of a 1% solution containing 0.1% Tween 80
Method: as §1, §2

Staphylococcus aureus [2] = experiment: Filter paper disc bacterial inhibition test on agar plates (Example 1); assay type: cell-based; settings: for Clear Area, Average: average of plates 1-4; for Clear Area: single plate, overnight at 37° C.
Method: (§3) A stock (1%) solution is prepared by dissolving 0.1 gm of zinc ocyacetate in 10 ml of water. A 1/2 dilution (0.5% solution) is made by admixing 5 ml of the stock solution and 5 ml of water. A 1/4 dilution (0.25% solution) is made by admixing 5 ml of the 0.5% solution and 5 ml of water. A 1/10 dilution (0.1% solution) is made by admixing 1 ml of the stock (1%) solution and 9 ml of water. Fine filter paper discs of 1 cm diameter are placed in each of four clean petri dishes. In dish #1, 0.1 ml of the 1% solution is dropped onto each filter disc and allowed to air dry. The same is done in dish #2 except that the 0.5% solution is used. The same is done on dishes #3 and #4 except that the 0.25 and 0.1% solutions, respectively,are used. One ml of a previously prepared 1×10^-4 dilution of a broth bacterial culture (Staphylococcus aureus) is then spread evenly over the entire surface of four agar plates. At the 12 o'clock position on each of the agar plates, a disc from dish #1 (1% solution) is placed. Discs from dishes #2, #3 and #4 are similarly placed at the 3 o'clock, 6 o'clock, and 9 o'clock positions, respectively, of each of the four plates. Each disc is gently pressed to enure good contact with the agar surface. For comparison purposes, a further stock solution of zinc sulphate (1%) is made up and an identical series of tests made. Each plate is incubated overnight at 37° C. and the area of inhibition--the clear area around each disc--is measured.

Staphylococcus aureus [3] = experiment: as above; assay type: cell-based; settings: .01% solution (as headed); for Clear Area, Average: average of plates 1-4; for Clear Area: single plate, overnight at 37° C., -- counted as zero in the average
HSV-2 [4] = experiment: Neutralization of viral cytopathogenic effect (CPE) on BGM cells, HSV-2 (Example 3); assay type: cell-based, Herpes simplex virus type II
Method: (§4) Evaluation of the compound is made using a simple neutralization of viral cytopathogenic effect (CPE) on Buffalo Green Monkey (BGM) cells using two tubes for each dilution of virus. […] In order to evaluate zinc oxyacetate, the compound (or the compound in equal weight admixture with lauryl alcohol) is incubated for 1 hour with the virus prior to making ten-fold serialdilutions and innoculating the BGM tubes. The amount of virus used is 0.1 ml. The amount of test material used is 0.1 ml of a solution containing 0.1% of Tween 80 and 0.1% of the test material.

Bread mold = experiment: Disc growth inhibition of bread mold on nutrient plate (Example 2); assay type: cell-based
Method: as §3, with “measured. Bread mold is innoculated on a nutrient plate.” for “measured.”

[5] = test system: Herpes simplex virus type 1 (HSV-1); experiment: Neutralization of viral cytopathogenic effect (CPE) on BGM cells, HSV-1 (Example 3); assay type: cell-based
Method: as §4

Adenovirus type 4 = experiment: CPE trial on Adenovirus type 4 using KB cells (Example 17); assay type: cell-based
HSV-1 [6] = experiment: CPE trial on HSV-1 (Examples 15-16); assay type: cell-based, Herpes simplex virus type I; settings: in words
HSV-2 [7] = experiment: CPE trial on HSV-2 (Examples 15-16); assay type: cell-based, Herpes simplex virus type II
Echo 5 = experiment: CPE trial on Echo 5 (Examples 12-14); assay type: cell-based; settings: in words
HSV-1 [8] = experiment: Plaque assay, HSV-1 (Examples 8-11); assay type: cell-based, Herpes simplex virus type I
Polio 1 = assay type: cell-based; settings: in words; CPE trial
HSV-2 [9] = experiment: Plaque assay, HSV-2 (Examples 5-7); assay type: cell-based, Herpes simplex virus type II
[10] = Visible precipitate under sensitivity disc (Example 1); assay type: physicochemical; settings: 1% and 0.50% concentration
Method: as §3, with “For comparison purposes, a further stock solution of zinc sulphate (1%) is made up and an identical series of tests made.” left out

## CC(=O)O.CC(=O)O.CC(=O)O.CC(=O)O.CC(=O)O.CC(=O)O.[O-2].[Zn+2].[Zn+2].[Zn+2].[Zn+2] [Zinc oxyacetate, zibnc, hexakis(acetato) oxotetra]
Trichophyton rubrum
  Size of cleared area, Trichophyton rubrum: 5 mm
Microsporum canis
  Size of cleared area, Microsporum canis: 8 mm
[1]
  Size of cleared area, Trichophyton mentagrophytes: 9 mm
Candida albicans
  Size of cleared area, Candida albicans: 9 mm
Staphylococcus aureus [2]; 1% solution
  Clear Area, Average: 1.82 cm
  Clear Area: 1.85 cm and 1.80 cm and 1.78 cm
Staphylococcus aureus [2]; .25% solution
  Clear Area, Average: 1.37 cm
  Clear Area: 1.32 cm and 1.35 cm and 1.40 cm and 1.42 cm
Staphylococcus aureus [2]; .5% solution
  Clear Area, Average: 1.64 cm
  Clear Area: 1.70 cm and 1.52 cm and 1.61 cm and 1.72 cm
Staphylococcus aureus [2]; in words, versus zinc sulphate
  bacteriostatic qualities: bacteriostatic qualities comparable to those of zinc sulphate
Staphylococcus aureus [3]
  Clear Area, Average: 0.31 cm
  Clear Area: 1.25 cm
HSV-2 [4]; BGM cells, 1 hour preincubation with virus, 0.1% test material, 0.1% Tween 80, control 10^-2
  Titer based on 4+(100%) CPE, HSV-2: 0
HSV-2 [4]; in words, HSV-2, BGM cells
  effectiveness in inhibiting the virus: effective in inhibiting the virus
HSV-2 [4]; titer reduction versus control
  log inhibition, HSV-2: 2 log
Bread mold; 1% solution
  growth inhibition of bread mold: good growth inhibition
Bread mold; less concentrated solution
  growth inhibition of bread mold: does not noticeably inhibit growth
Bread mold; undiluted material
  growth inhibition of bread mold: good growth inhibition
[5]; BGM cells, 1 hour preincubation with virus, 0.1% test material, 0.1% Tween 80, control 10^-4
  Titer based on 4+(100%) CPE, HSV-1: 10^-3
[5]; in words, HSV-1, BGM cells
  effectiveness in inhibiting the virus: effective in inhibiting the virus
[5]; titer reduction versus control
  log inhibition, HSV-1: 1 log

## CC(=O)[O-].CC(=O)[O-].CC(=O)[O-].CC(=O)[O-].CC(=O)[O-].CC(=O)[O-].[Mn+2].[Mn+2].[Mn+2].[Mn+2].[O-2] [Manganese compound, Magnanese oxyacetate]
Adenovirus type 4; in all cases
  titer, Adenovirus type 4: 10^-3
Adenovirus type 4; in words
  effectiveness in inhibiting the CPE of Adenovirus type 4: neither the test compound nor Zn carrier are effective
HSV-1 [6]
  effectiveness against HSV-1: probably not effective against HSV-1
HSV-2 [7]; 10^-1 dilution of HSV-2
  size of the BGM cells: increase in the size of the BGM cells
HSV-2 [7]; 10^-1 dilution of HSV-2, BGM cells
  inhibition of HSV-2: inhibit the virus completely
HSV-2 [7]; 10^-2 and 10^-3 dilution, one tube in each dilution, later typical syncytial formation
  inhibition of HSV-2: early inhibition of virus
HSV-2 [7]; BGM cells, control 10^-2.5
  CPE result (titer column), HSV-2: Inhibition
HSV-2 [7]; in words, CPE trial
  effectiveness against HSV-2: effective against HSV-2
  type of action against HSV-2 (viristatic / viricidal): apparent viristatic action
Echo 5
  effectiveness against Echo 5: not effective
HSV-1 [8]; HSV-1 10^-2 (Example 8), 0% methylcellulose overlay, control TNC (too numerous to count)
  plaque assay result, HSV-1: 90
HSV-1 [8]; HSV-1 10^-2 (Example 8), 1.5% methylcellulose overlay, control ND, Irr = irregular results, TNC = too numerous to count
  plaque assay result, HSV-1: Irr
HSV-1 [8]; HSV-1 10^-2 (Example 8), 2% methylcellulose overlay, control ND, Irr = irregular results, TNC = too numerous to count
  plaque assay result, HSV-1: Irr
HSV-1 [8]; HSV-1 10^-3 (Example 9), 0% methylcellulose overlay, control 34
  plaque assay result, HSV-1: 11
HSV-1 [8]; HSV-1 10^-3 (Example 9), 1.5% methylcellulose overlay, control TNC
  plaque assay result, HSV-1: 45
HSV-1 [8]; HSV-1 10^-3 (Example 9), 2% methylcellulose overlay, control 115
  plaque assay result, HSV-1: 46
HSV-1 [8]; HSV-1 10^-4 (Example 10), 0% methylcellulose overlay, control 6
  plaque assay result, HSV-1: 4
HSV-1 [8]; HSV-1 10^-4 (Example 10), 1.5% methylcellulose overlay, control 38
  plaque assay result, HSV-1: 5
HSV-1 [8]; HSV-1 10^-4 (Example 10), 2% methylcellulose overlay, control 10
  plaque assay result, HSV-1: 5
HSV-1 [8]; HSV-1 10^-5 (Example 11), 0% methylcellulose overlay, control 5
  plaque assay result, HSV-1: 0
HSV-1 [8]; HSV-1 10^-5 (Example 11), 1.5% methylcellulose overlay, control 3
  plaque assay result, HSV-1: 0
HSV-1 [8]; HSV-1 10^-5 (Example 11), 2% methylcellulose overlay, control 3
  plaque assay result, HSV-1: 0
Polio 1
  effectiveness against Polio 1: not effective
HSV-2 [9]; HSV-2 10^-1 (Example 5), control ND
  plaque assay result, HSV-2: Toxic
HSV-2 [9]; HSV-2 10^-2 (Example 6), control 39
  plaque assay result, HSV-2: 4
HSV-2 [9]; HSV-2 10^-3 (Example 7), control 5
  plaque assay result, HSV-2: 0
HSV-2 [9]; in words
  inhibition of HSV-2 (plaque assay): less effective than the zinc composition; also recorded: both substances inhibited HSV-2
Solubility in 2% FBS-MEM
  solubility (in words): readily soluble

## O=S(=O)([O-])[O-].[Zn+2] [Zinc sulphate, zinc sulphate, reference compound]
Staphylococcus aureus [2]; 1% solution
  Clear Area, Average: 1.66 cm
  Clear Area: 1.80 cm and 1.72 cm and 1.71 cm and 1.42 cm
Staphylococcus aureus [2]; .25% solution
  Clear Area, Average: 1.37 cm
  Clear Area: 1.40 cm and 1.39 cm and 1.31 cm
Staphylococcus aureus [2]; .5% solution
  Clear Area, Average: 1.44 cm
  Clear Area: 1.50 cm and 1.45 cm and 1.41 cm and 1.40 cm
Staphylococcus aureus [3]
  Clear Area, Average: 0.61 cm
  Clear Area: 1.22 cm and 1.21 cm
[10]
  visible precipitate under each sensitivity disc: a visible precipitate formed under each sensitivity disc
